# Measured values reported in US4284621A, “Agents for protection against light” (Bayer Aktiengesellschaft, priority 1978, dated 1981).
# Structures can show the parent of a compound that is named as a salt.
# How the values were obtained:
# [1] = UV absorption spectral data (wavelength λmax, molar extinction ε, specific extinction E1^1); format: physicochemical; set-up: Wavelength λmax: unit not given beside the values; conditions: for Molar extinction ε: in M-1cm-1; for specific extinction (in words, compared with compounds of formula I): comparison with compounds of formula I
# 14 day LD 50 (tolerance) = format: in vivo
# [2] = Solubilities at room temperature (20-25° C.) in groundnut oil and groundnut oil/liquid paraffin 1:9; format: physicochemical
# [3] = Table 1, second value, in parentheses
Compound,Specific extinction E1^1 ([1]; Table II),Wavelength λmax (nm) ([1]; Table II),Molar extinction ε ([1]; Table II),Specific extinction E1^1 ([1]; Table 1),Wavelength λmax ([1]; Table 1),Molar extinction ε ([1]; Table 1),also measured
4-methoxy-benzylidene-cyanoacetic acid isononyl ester [iso-Nonyl],860,341,"28,400",–,–,–,14 day LD 50 (14 day LD 50 (tolerance)): 20.76 mL/kg
"CCOC(=O)C(=Cc1ccc(OC)c(OC)c1)C(=O)OCC [3,4-Dimethoxybenzylidenemalonic acid diethyl ester]",–,–,–,670,308,"20,500",–
COC(=O)C(C#N)=Cc1cccc(N)c1 [3-Aminobenzylidenecyanic acid methyl ester],–,–,–,830,310,"16,800",–
CCOC(=O)C(=Cc1cccc(O)c1)C(=O)OCC [3-Hydroxybenzylidenemalonic acid diethyl ester],–,–,–,770,282,"20,300",–
COC(=O)C(C#N)=Cc1ccc(Cl)cc1 [4-Chlorobenzylidenecyanoacetic acid methyl ester],–,–,–,940,313,"20,900",–
CN(C)c1ccc(C=C(C(N)=O)C(N)=O)cc1 [4-Dimethylaminobenzylidenemalonic acid diamide],–,–,–,870,369,"20,400",–
COC(=O)C(=Cc1ccc(N(C)C)cc1)C(=O)OC [4-Dimethylaminobenzylidenemalonic acid dimethyl ester],–,–,–,"1,200",375,"31,400",–
COC(=O)C(C#N)=Cc1ccc(O)c(OC)c1 [4-Hydroxy-3-methoxybenzylidenecyanoacetic acid methyl ester],–,–,–,960,366,"22,400",–
CCOC(=O)C(=Cc1ccc(O)c(OC)c1)C(=O)OCC [4-Hydroxy-3-methoxybenzylidenemalonic acid diethyl ester],–,–,–,630,332,"20,750",–
COC(=O)C(C#N)=Cc1ccc(O)cc1 [4-Hydroxybenzylidenecyanoacetic acid methyl ester],–,–,–,"1,350",348,"27,300",–
CCOC(=O)C(=Cc1ccc(OC)cc1)C(C)=O [4-Methoxybenzylideneacetoacetic acid ethyl ester],–,–,–,770,316,"19,000",–
COc1ccc(C=C(C#N)C(=O)N(CC(C)C)CC(C)C)cc1 [4-Methoxybenzylidenecyanoacetic acid diisobutylamide],–,–,–,510,325,"15,900",–
COc1ccc(C=C(C(=O)OCC(C)C)C(=O)OCC(C)C)cc1 [4-Methoxybenzylidenemalonic acid diisobutyl ester],–,–,–,740,312,"24,800",–
COC(=O)C(C#N)=Cc1ccc(C)cc1 [4-Methylbenzylidenecyanoacetic acid methyl ester],–,–,–,"1,230",317,"25,000",–
"COc1ccc(C(=O)c2cc(S(=O)(=O)O)c(OC)cc2O)c(O)c1 [(1), sodium salt of 2,2'-dihydroxy-4,4'-dimethoxybenzophenone-5-sulphonic acid]",160,330,"5,920",–,–,–,"specific extinction (in words, compared with compounds of formula I) ([1]; Table II): significantly lower specific extinction"
"COc1ccc(C(=O)CC(=O)c2ccc(OC)cc2)cc1 [(3), dianisoylmethane]",–,–,–,–,–,–,Solubility at room temperature in groundnut oil (%) [2]: 1%
COC(=O)C(C#N)=Cc1ccco1 [Furfurylidenecyanoacetic acid methyl ester],–,–,–,"1,530",337,"27,000",–
"CCCCCCCCCCOC(=O)C(C#N)=Cc1ccc(OC)cc1 [n-Decyl, 4-methoxy-benzylidene-cyanoacetic acid n-decyl ester]",810,341,"27,700",–,–,–,–
CCCCCCCCCCCCOC(=O)C(C#N)=Cc1ccc(OC)cc1 [n-Dodecyl],770,342,"28,450",–,–,–,Solubility at room temperature in groundnut oil (%) [2]: 14%
CCCCCCCOC(=O)C(C#N)=Cc1ccc(OC)cc1 [n-Heptyl],940,341,"28,300",–,–,–,Solubility at room temperature in groundnut oil (%) [2]: 33%; Solubility at room temperature in groundnut oil/liquid paraffin 1:9 (%) [2]: 7%
"CCCCCCOC(=O)C(C#N)=Cc1ccc(OC)cc1 [n-Hexyl, 4-methoxy-benzylidene-cyanoacetic acid n-hexyl ester]",990,342,"28,500",–,–,–,14 day LD 50 (14 day LD 50 (tolerance)): 5.71 mL/kg; Solubility at room temperature in groundnut oil/liquid paraffin 1:9 (%) [2]: 90%
CCCCCOC(=O)C(C#N)=Cc1ccc(OC)cc1 [n-Pentyl],"1,050",341,"28,600",–,–,–,Solubility at room temperature in groundnut oil (%) [2]: 6-7%; Solubility at room temperature in groundnut oil/liquid paraffin 1:9 (%) [2]: 1.4%
"COC(=O)C(C#N)=C(c1ccccc1)c1ccccc1 [α-Cyano-β,β-diphenyl-acrylic acid methyl]",–,–,–,520,–,"14,000",–

# More lines, main results first:
Specific extinction E1^1 ([1]; Table II),Wavelength λmax (nm) ([1]; Table II),Molar extinction ε ([1]; Table II),Specific extinction E1^1 ([1]; Table 1),Wavelength λmax ([1]; Table 1),Molar extinction ε ([1]; Table 1),Compound,also measured
790,341,"27,000",–,–,–,4-methoxy-benzylidene-cyanoacetic acid isodecyl ester [iso-Decyl],–
–,–,–,470,354,"10,300",COC(=O)C(C#N)=Cc1ccccc1OC [2-Methoxybenzylidenecyanoacetic acid methyl ester],"Molar extinction ε (value in parentheses) [1, 3]: 12,100; Specific extinction E1^1 (value in parentheses) [1, 3]: 560; Wavelength λmax (value in parentheses) [1, 3]: 297"
–,–,–,970,360,"24,000","COC(=O)C(C#N)=Cc1ccc(OC)c(OC)c1 [3,4-Dimethoxybenzylidenecyanoacetic acid methyl ester]",–
–,–,–,900,303,"18,200",COC(=O)C(C#N)=Cc1cccc(O)c1 [3-Hydroxybenzylidenecyanoacetic acid methyl ester],–
–,–,–,710,299,"15,300",COC(=O)C(C#N)=Cc1cccc(OC)c1 [3-Methoxybenzylidenecyanoacetic acid methyl ester],–
–,–,–,870,421,"19,900",COC(=O)C(C#N)=Cc1ccc(N(C)C)cc1 [4-Dimethylaminobenzylidenecyanoacetic acid methyl ester],–
–,–,–,690,340,"18,200",CCOC(=O)C(=Cc1ccc(O)c(OC)c1)C(C)=O [4-Hydroxy-3-methoxybenzylideneacetoacetic acid ethyl ester],–
–,–,–,"1,230",312,"23,000",C=C(C)C(=O)Oc1ccc(C=C(C#N)C(=O)OC)cc1 [4-Methacryloxybenzylidenecyanoacetic acid methyl ester],–
–,–,–,"1,200",332,"24,300",COc1ccc(C=C(C#N)C(N)=O)cc1 [4-Methoxybenzylidenecyanoacetic acid amide],–
–,–,–,"1,350",340,"29,300",COC(=O)C(C#N)=Cc1ccc(OC)cc1 [4-Methoxybenzylidenecyanoacetic acid methyl ester],–
645,351,"15,900",–,–,–,"O=C(c1ccc(O)cc1O)c1ccc(O)cc1O [(2), 2,2',4,4'-tetrahydroxybenzophenone]","specific extinction (in words, compared with compounds of formula I) ([1]; Table II): significantly lower specific extinction; Solubility at room temperature in groundnut oil (%) [2]: 0.8%"
"1,090",342,"28,300",–,–,–,CCCCOC(=O)C(C#N)=Cc1ccc(OC)cc1 [n-Butyl],Solubility at room temperature in groundnut oil (%) [2]: 17%; Solubility at room temperature in groundnut oil/liquid paraffin 1:9 (%) [2]: 3%
910,341,"30,000",–,–,–,CCCCCCCCCOC(=O)C(C#N)=Cc1ccc(OC)cc1 [n-Nonyl],Solubility at room temperature in groundnut oil (%) [2]: 55%; Solubility at room temperature in groundnut oil/liquid paraffin 1:9 (%) [2]: 10%
970,341,"30,500",–,–,–,"CCCCCCCCOC(=O)C(C#N)=Cc1ccc(OC)cc1 [n-Octyl, 4-methoxy-benzylidene-cyanoacetic acid n-octyl ester]",Solubility at room temperature in groundnut oil/liquid paraffin 1:9 (%) [2]: 90%
–,–,–,460,318,"10,900",COC(=O)C(C#N)=C(C)c1ccc(OC)cc1 [α-Cyano-β-methyl-β-(4-methoxyphenyl)-acrylic acid methyl ester],–
